Data from patent US12064517B1, “Polymer nanoparticle” (priority 2018, dated 2024).
One block for each compound: values may come before it.

Tests used:
[1] = tested on: Human Lung Carcinoma A549; assay: Cell Titer-Glo Luminescent Cell Viability assay, antiproliferative activity, A549; assay type: cell-based; conditions: A549 cell line, 72 hours culture with test article, highest concentration 0.4 μM
Description: (§1) The antiproliferative activity was studied against human tumor cell lines, Human Lung Carcinoma A549 and Human Mammary Gland Adenocarcinoma MCF-7 with Promega's Cell Tier-Glo® Luminescent Cell Viability assay.
(§2) A preliminary cell titration was conducted to select the proper seeding density for the growth of these lines for the relevant time frames.
(§3) The tumor cells were seeded in a volume of 90 μL/well of growth medium into a white polystyrene 96-well microculture plate (Corning® Costar® 96-well flat bottom plate, Cat #3917). After 24 hours of incubation in a humidified incubator at 37° C., in an atmosphere of 5% CO2 and 95% air, 10 μL of 10 serially diluted test agent in growth medium were added to each well in duplicate (10 points dose response, highest concentration 0.4 μM, with a 1:2 dilution plus untreated control). After 72 hours of culture with test article, in a humidified incubator at the atmosphere of 5% CO2 and 95% air, the plate cells and Cell Titer-Glo® (Promega G7571) reagents were brought to room temperature to equilibrate for 30 minutes. 100 μL of Cell Titer-Glo® (Promega G7571) reagent was added to each well. The plates were shaken for two minutes and then left to equilibrate for ten minutes prior to reading luminescence on the Biotech Synergy II microplate reader. The IC50 results are listed in the following tables and are shown in graphs in FIG. 5 and FIG. 6.

[2] = tested on: Human Mammary Gland Adenocarcinoma MCF-7; assay: Cell Titer-Glo Luminescent Cell Viability assay, antiproliferative activity, MCF-7; assay type: cell-based; conditions: MCF7, MCF-7 cell line, 72 hours culture with test article, highest concentration 0.4 μM
Description: as §1, §2, §3

[3] = Encapsulation of purpurin dye in nanogel, aqueous dispersion; assay type: physicochemical; conditions: 2 mg purpurin, 6 mg PEG diacrylate (MW 1000) β-cyclodextrin crosslinked nanogel, 3 ml di water, stirring overnight
Description: 6 mg of PEG diacrylate (MW 1000) β-cyclodextrin crosslinked nanogel was dispersed in 3 ml of di water, 2 mg of purpurin solid was added to the solution. The resulted mixture was stirring overnight.

[4] = native cyclodextrin; cited from earlier work

IC50 [1]: 5.98 nM
IC50 [2]: 1.06 nM
Compound: CC(=O)O[C@H]1C(=O)[C@@]2(C)[C@H]([C@H](OC(=O)c3ccccc3)[C@]3(O)C[C@H](OC(=O)[C@H](O)[C@@H](NC(=O)c4ccccc4)c4ccccc4)C(C)=C1C3(C)C)[C@]1(OC(C)=O)CO[C@@H]1C[C@@H]2O [Paclitaxel Control, paclitaxel]

Compound: O=C1c2ccccc2C(=O)c2c(O)c(O)cc(O)c21 [purpurin]
Aqueous dispersion of purpurin with nanogel [3]: dispersed in the aqueous as a transparent colloidal solution

Compound: OC[C@H]1O[C@@H]2O[C@H]3[C@H](O)[C@@H](O)[C@@H](O[C@H]4[C@H](O)[C@@H](O)[C@@H](O[C@H]5[C@H](O)[C@@H](O)[C@@H](O[C@H]6[C@H](O)[C@@H](O)[C@@H](O[C@H]7[C@H](O)[C@@H](O)[C@@H](O[C@H]1[C@H](O)[C@H]2O)O[C@@H]7CO)O[C@@H]6CO)O[C@@H]5CO)O[C@@H]4CO)O[C@@H]3CO [α-cyclodextrin]
solubility [4]: 129.5 g/kg
